Results reported in patent US4243678A, “Acylhydrocarbylaminoalkanoic acids, compositions and uses” (Byk Gulden Lomberg Chemische Fabrik GmbH, priority 1977, dated 1981).
Where two headings read alike, the source gives them in different places.

What was measured:
[1] = Influence on pancreatic secretion of the narcotized rat; type: in vivo, rat (male Sprague-Dawley); conditions: in vivo, LD50 mouse i.p. / ED50 rat i.d.
Text: (§1) Male Sprague-Dawley rats (body weight from 250 to 300 g) are narcotized with 1.2 g/kg urethane i.m. Then the abdominal cavity is opened medially, the bile duct is ligatured shortly above the place where it leads into the duodenum and also near to the hepatic duct, and both sections are catheterized towards the liver.
(§2) As in the rat all the pancreatic ducts lead out into the central section of the bile duct; it is possible in this way to discharge the pancreatic secretion separately from the distal (ligatured) section and the bile separately from the proximal section of the bile duct.
(§3) The quantities of pancreatic juice and bile juice obtained are measured at intervals of 30 minutes over a period from 2 hours before to 3 hours after the intraduodenal (V. jugularis externa) administration of the compounds to be tested (quantity of liquid administered 5 ml/kg).
(§4) The body temperature of the animals is maintained at 36° to 38° C. by means of electric blankets and radiation; the temperature is monitored rectally.
(§5) The liquid volumes of the 30-minute fractions after the administration of the substance are related in each case to the quantity of bile or pancreatic juice secreted prior to the application of the substance (=100%, mean of the last two measurements). The maximum percentage increase in the pancreatic or bile secretion is represented in dependence upon dose, and from this the ED50 is determined by interpolation.

pancreatic secretion = experiment: as above; type: in vivo, rat (male Sprague-Dawley); conditions: 0.5 h, narcotized rat, i.d., liquid volume
Text: as §1, §2, §3, §4, §5

[2] = Antihepatotoxic effect: duration of hexobarbital sleep of the rat after liver damage by CCl4; conditions: rat, in vivo
Protocol: (§6) The compounds to be tested are administered 1 hour prior to the administration of CCl4 orally in a liquid volume of 10 ml/kg.
(§7) The antihepatotoxic effect of the compounds to be tested (sodium salts in aqueous solution) is determined by the reduction of the prolongation of sleeping period caused by the CCl4 liver cell damage in the groups treated, as compared with the prolongation of the sleeping period of the CCl4 control group (=100%). […]

liver damage by CCl4 = experiment: as above; conditions: Rattus norvegicus, po; for ED25: read-out: ED25 antihepatotoxic effect (shortens hexobarbital narcosis by 25%); for ED50: read-out: ED50 antihepatotoxic effect (shortens hexobarbital narcosis by 50%)
Protocol: as §6, §7

[3] = Determination of toxicity (lethal action on the mouse after intraperitoneal application); type: in vivo; conditions: in vivo, ip
Protocol: The toxicity investigations are carried out on female NMRI mice (body weight 22 to 26 g). The animals (5 animals per dose) are given food and water ad lib. Different doses of the substances are administered intraperitoneally. The duration of observation is 14 days. The LD50, i.e. the dose at which 50% of the animals die, is determined graphically from the dose/effect curve.

[4] = Antiulcerogenic (stomach-protective) action, pylorus ligature and acetylsalicylic acid; type: in vivo, rat (female); conditions: in vivo, LD50 mouse i.p. / ED50 rat i.d.
Protocol: (§8) The ulcer provocation is carried out on rats which have been made to fast for 24 hours (female, 180 to 200 g) by ligature of the pylorus (under ether narcosis) and the oral application of 100 mg/10 ml/kg acetylsalicylic acid. The administration of the substances was carried out intraduodenally (2.5 ml/kg) immediately after the ligature of the pylorus. The closure of the wound was carried out by means of Michel clamps. 4 hours after this, the animals were autopsied (while inebriated with ether) by dislocation of the atlas, and the stomach was resected. The stomach, opened longitudinally, is fixed on a cork board and, using a stereomicroscope with an enlargement of 10×, the number and size (=diameter) of any ulcers present were determined. The product of the degree of severity (according to the following scale of points) and the number of ulcers was used as the individual ulcer index.
(§9) As a measure of antiulcerogenic effect the reduction in the mean ulcer index of each treated group, as compared with that of the control group (=100%), was used.

stomach ulcer = experiment: as above; type: in vivo, rat (female); conditions: 4 h, rat, intraduodenally, read-out: ED50 antiulcerogenic action (dose which reduces the mean ulcer index by 50%)
Protocol: as §8, §9

[5] = test system: glucose formation from lactate and pyruvate in isolated perfused liver; experiment: Inhibition of the formation of glucose from lactate and pyruvate in the isolated perfused rat liver; set-up: species or system rat (male Sprague-Dawley); conditions: for Glucose formation, % change: isolated perfused liver of fasting rats; for ED50 inhibition of formation of glucose from lactate and pyruvate: from 4 concentrations, 0.02 to 1.00 mmol/liter
Protocol: For this purpose young male Sprague-Dawley rats (160 to 200 g) are used. The rats are kept in cages of up to 5 animals in a temperature-controlled room (23° C.) with a fixed day/night rhythm (12/12 hours).
Food is withheld from the animals for from 20 to 22 hours prior to the operation. They are allowed to take water ad lib. The operation and the perfusion of the liver are carried out using the technique of R. Scholz et al. [Eur. J. Biochem. 38 (1973) 64 to 72]. The perfusion liquid used is Krebs-Henseleit bicarbonate buffer (pH 7.4), which is saturated with an oxygen/carbon dioxide mixture (95/5) and contains 1.6 mmol/liter of L-lactate and 0.2 mmol/liter of pyruvate. The perfusion liquid is pumped into the liver via a cannula inserted into the portal vein. The effluent perfusion liquid is collected via a cannula inserted into the Vena cava. The liver is perfused for about 2 hours. The test compounds are infused for 16 minutes each from the 32nd to the […] after the perfusion in increasing concentrations (0.02 to 1.00 mmol/liter).
Samples of the effluent perfusion liquid are collected at one-minute intervals and analyzed for glucose, lactate and pyruvate (using standard enzymatic methods). The percentages shown in Table VIII relate to the condition occurring before and after the administration of the compounds, the changes caused solely by lactate and pyruvate being set as being equal to 100%.

[6] = Table VII, read-out: TQ [LD50/ED50], pancreatic secretion
[7] = 30 min fraction, Table VII, read-out: ED50 pancreatic secretion (dose which brings about an increase in pancreatic secretion of a maximum of 50%)
[8] = TQ LD50/ED25, antihepatotoxic effect, LD50 mouse i.p. / ED25 rat p.o., Table V
[9] = TQ LD50/ED50, antihepatotoxic effect, LD50 mouse i.p. / ED50 rat p.o., Table V
[10] = Table IV, read-out: TQ (LD50/ED50), antiulcerogenic action
[11] = 0.2 mmole/liter in the perfusate, Table VIII
[12] = Table X, read-out: TQ LD50/ED50, pancreatic secretion
[13] = 30 minute fraction, Table X, read-out: ED50 pancreatic secretion (dose which brings about an increase in pancreatic secretion by a maximum of 50%)
[14] = TQ LD50/ED25, antihepatotoxic effect, LD50 mouse i.p. / ED25 rat p.o., Table XI
[15] = Table IX, read-out: TQ LD50/ED50, antiulcerogenic action

SMILES | selectivity ratio [1, 6] | ED50 (pancreatic secretion; [7]) | selectivity ratio [2, 8] | selectivity ratio [2, 9] | ED25 (liver damage by CCl4) | ED50 (liver damage by CCl4) | LD50 at 336 h ([3]; mouse, Table IV) | selectivity ratio [4, 10] | ED50 (stomach ulcer; Table IV) | selectivity ratio [1, 12] | ED50 (pancreatic secretion; [13]) | LD50 at 336 h ([3]; mouse i.p., Table IX) | selectivity ratio [4, 15] | ED50 (stomach ulcer; Table IX) | other results
O=C(O)CCCN(C(=O)c1cccc(C(F)(F)F)c1)c1ccccc1-c1ccccc1 [Serial No. 25, 4-[m-trifluoromethyl-N-(biphenyl-2-yl)benzamido]butyric acid] | 110 | 1 mg/kg | 11 | 3.7 | 10 mg/kg | 30 mg/kg | 110 mg/kg | 11 | 10 mg/kg |  |  |  |  |  | Glucose formation, % change [5, 11]: -77%; ED50 inhibition of formation of glucose from lactate and pyruvate ([5]; Table VIII): 34 µg/mL
O=C(O)CCCN(C(=O)c1ccc(Cl)cc1)c1ccc(-c2ccccc2)cc1 [Serial No. 23, 4-[p-chloro-N-(biphenyl-4-yl)benzamido]butyric acid] | 120 | 1 mg/kg | 8 | 5.5 | 15 mg/kg | 22 mg/kg | 120 mg/kg | ~8 | ~15 mg/kg |  |  |  |  |  | 
O=C(O)CCCN(C(=O)c1ccc(Cl)cc1)c1cccc2ccccc12 [Serial No. 38, 4-{p-chloro-[N(α-naphthyl)]benzamido}butyric acid] |  |  |  |  | ~5 mg/kg | 40 mg/kg |  |  |  | 56 | 2.5 mg/kg |  |  |  | selectivity ratio [2, 14]: ~28; selectivity ratio ([2]; TQ LD50/ED50, antihepatotoxic effect, LD50 mouse i.p. / ED50 rat p.o., Table XI): 3.5; LD50 at 336 h ([3]; mouse i.p., Table X): 140 mg/kg; Glucose formation, % change ([5]; 0.2 mmol/liter in the perfusate, Table XIII): -48%; ED50 inhibition of formation of glucose from lactate and pyruvate ([5]; Table XIII): 81 µg/mL
O=C(O)CCCN(C(=O)c1ccc(Cl)c(Cl)c1)c1ccc2c(c1)CCC2 [compound 53] |  |  |  |  | 10 mg/kg |  |  |  |  | > 180 | < 1 mg/kg | 180 mg/kg | > 18 | < 10 mg/kg | selectivity ratio [2, 14]: 18
O=C(O)CCCN(C(=O)c1ccc(F)cc1)c1ccccc1-c1ccccc1 [Serial No. 26, 4-[p-fluoro-N-(biphenyl-2-yl)benzamido]butyric acid] | 84 | 2.5 mg/kg | 131 | 75 | 1.6 mg/kg | 2.8 mg/kg | 210 mg/kg | ~3.8 | ~55 mg/kg |  |  |  |  |  | Glucose formation, % change [5, 11]: -51%; ED50 inhibition of formation of glucose from lactate and pyruvate ([5]; Table VIII): 76 µg/mL
CCC(=O)N(CCCC(=O)O)C1CCCc2cc(OC)ccc21 (centres unmarked) [compound 52] |  |  |  |  |  |  |  |  |  | > 200 | < 1 mg/kg | > 200 mg/kg | > 20 | < 10 mg/kg | 
CC(CCC(=O)O)N(C(=O)c1ccc(Cl)cc1)c1cccc2ccccc12 (stereo not drawn) [Serial No. 45, 4-{p-chloro-[N-(α-naphthyl)]benzamido}valeric acid] |  |  |  |  | ~15 mg/kg |  |  |  |  | ~180 | ~1 mg/kg | 180 mg/kg | > 18 | < 10 mg/kg | selectivity ratio [2, 14]: ~12
O=C(O)CCCCN(C(=O)c1ccc(Cl)cc1)c1ccc2c(c1)CCC2 [compound 54] |  |  |  |  |  |  |  |  |  |  |  | 160 mg/kg | ≤ 16 | ≥ 10 mg/kg | 
COc1ccc(N(CCCC(=O)O)C(=O)c2ccc(Cl)cc2)cc1-c1ccccc1 [Serial No. 35, 4-[p-chloro-N-(6-methoxybiphenyl-3-yl)benzamido]butyric acid] | 80 | 1.5 mg/kg |  |  |  |  | 120 mg/kg | > 12 | < 10 mg/kg |  |  |  |  |  | 
CC(C)C(=O)N(CCCCC(=O)O)c1cccc2ccccc12 [compound 51] |  |  |  |  |  |  |  |  |  |  |  | > 200 mg/kg | ~20 | < 10 mg/kg | 
CCOc1ccc(N(CCCC(=O)O)C(=O)c2ccc(Cl)cc2)c2ccccc12 [Serial No. 43, 4-{p-chloro-[N-(4-ethoxy-1-naphthyl)]benzamido}butyric acid] |  |  |  |  |  |  |  |  |  | 100 | 0.7 mg/kg | 70 mg/kg | 7 | 10 mg/kg | 
O=C(O)CCCN(C(=O)c1ccc(Cl)cc1)c1ccccc1-c1ccccc1 [Serial No. 31, 4-[p-chloro-N-(biphenyl-2-yl)benzamido]butyric acid] | 180 | 1 mg/kg | > 180 | 51.4 | < 1 mg/kg | 3.5 mg/kg | 180 mg/kg | 5.1 | 35 mg/kg |  |  |  |  |  | Glucose formation, % change [5, 11]: -79%; ED50 inhibition of formation of glucose from lactate and pyruvate ([5]; Table VIII): 43 µg/mL
CC1(C)[C@@H](OC(=O)CCC(=O)O)CC[C@]2(C)[C@H]3C(=O)C=C4[C@@H]5C[C@@](C)(C(=O)O)CC[C@]5(C)CC[C@@]4(C)[C@]3(C)CC[C@@H]12 [compound 19] |  |  |  |  |  |  | 120 mg/kg | 2.4 | 50 mg/kg |  |  |  |  |  | 
O=C(O)CCCCCN(C(=O)c1ccc(Cl)cc1)c1ccccc1-c1ccccc1 [Serial No. 24, 6-[p-chloro-N-(biphenyl-2-yl)benzamido]caproic acid] |  |  | ~14.4 | 9.3 | ~9 mg/kg | 14 mg/kg | 130 mg/kg | ~3.3 | ~40 mg/kg |  |  |  |  |  | Glucose formation, % change [5, 11]: -99%; ED50 inhibition of formation of glucose from lactate and pyruvate ([5]; Table VIII): 23 µg/mL
O=C(O)CCCCN(C(=O)c1ccccc1O)c1ccccc1-c1ccccc1 [Serial No. 32, 5-[o-hydroxy-N-(biphenyl-2-yl)benzamido]valeric acid] |  |  |  |  |  |  | > 200 mg/kg | > 20 | < 10 mg/kg |  |  |  |  |  | 
